Measurements reported in patent publication US8673320B2, “Metal-citrate transporter antigen from Streptomyces coelicolor and uses thereof” (Syracuse University, priority 2008, dated 2014).
Structures can show the parent of a compound that is named as a salt.

Tests used:
[1] = system: Streptomyces coelicolor A3(2); experiment: 1,5-[^14C]-citrate transport assay in whole cells, Streptomyces coelicolor A3(2); assay type: cell-based; conditions: for uptake of citrate or metal-citrate species above background: S. coelicolor grown with glucose (SMMG), for Fe^3+ SMMG supplemented with 36 μM FeCl3.6H2O; for uptake of citrate in the presence of metal ion: S. coelicolor grown in broth with citrate as sole carbon source (SMMC), PIPES pH 6.5, 4.4 μM citrate
Description: S. coelicolor A3(2) cells were grown from stocks for 48-72 hours at 28° C. and 300 rpm. Cells were collected via centrifugation and washed twice with 50 mM chelexed piperazine-N,N′-bis(2-ethanesulfonic acid) (PIPES) buffer, pH 6.5. Cells were resuspended to an OD of 0.2 after the second wash. 100 μl of cells were added to 2.2 ml microcentrifuge tubes. 5 μl of metal as the chloride salt was then added from the following stock solution concentrations (220 mM CaCl2 or BaCl2, 22 mM MgCl2, NiCl2, 22 mM CoCl2, PbCl2, MnCl2 and 1.65 mM FeCl3). Different molar amounts of metals were used to maximize metal-citrate complex formation as per MINTEQ calculations (A12) and successfully used in a previous literature report (A19). Cells were then incubated at 30° C. for 8 minutes with shaking. At 8 minutes, 5 μl of 96.8 μM 1,5-[^14C]-citrate was added to each sample to provide a final concentration of 4.4 μM. Uptake was stopped by addition of 2 mL of 0.1 M LiCl. This was followed by immediate filtration through cellulose nitrate filters ([…], 2.1 cm diameter). The filters were washed with 2×2 mL of 0.1 M LiCl solution and radioactivity was recorded using a liquid scintillation counter. In every experimental run, background radioactivity was gauged by adding 2 mls of LiCl prior to addition of the radiolabelled citrate. As before, cells were then immediately filtered, washed with 2×2 mL of 0.1 M LiCl and radioactivity monitored. This served as the background and was subtracted from final data. Experiments were performed using at least three independent cultures and each time point was collected in triplicate per run. 4×100 μl of cells from each run were filtered directly through pre-weighed cellulose nitrate filter paper and dried to determine average cell sample weight. Transport assays were also ‘stopped’ using 10 mM HEPES-glucose buffer instead of 0.1 M LiCl to check for the occurrence of ‘leaking’, which has been postulated to occur with the use of LiCl (A22). No noticeable difference was observed across multiple cultures tested in either S. coelicolor (or E. coli as described below).
It is important to note that pre-incubating the ‘free’ metal prior to addition of ^14[C]-citrate or synthesizing the complex and then adding it to the cells made no difference to experimental results consistent with the work reported by Lolkema et al. (A19), except in the case of Fe^3+. Transport assays with Fe^3+ were performed at 25.0° C. with the metal precomplexed to [^14C]-citrate to prevent Fe^3+ precipitation in the aqueous buffer. The temperature and pH change were accounted for in MINTEQ calculations. All experiments using precomplexed mixtures were filtered using a 0.45 μm syringe filter (Fisher Scientific) prior to addition to cells.

[2] = system: Sccit; experiment: 1,5-[^14C]-citrate transport assay in E. coli expressing Sccit; assay type: cell-based, Streptomyces coelicolor; conditions: E. coli AA93 Δfec or JW4251-2 ΔfecA, induced with 0.5 mM IPTG for 1 hour
Description: E. coli AA93 and JW4251-2 cultures were grown in LB as described above. Protein expression for transport assays was induced at 30.0° C. with 0.5 mM Isopropyl β-D-thiogalacto-pyranoside (IPTG) at an OD600 of 1.0 for 1 hour. Subsequent flux assays followed the protocol described above for S. coelicolor and previous literature protocol (A19) with the following adaptations: cells were resuspended with 10 mL of PIPES buffer at 6.5 for all metals, and the transport assay was conducted at 37.0° C. except for iron (25° C.). Non-induced controls were included in all runs. Concentration of metal ion and citrate were chosen to maximize the formation of the desired metal-citrate complex (see Table 2). Experiments were performed using at least three independent cultures and each time point was collected in triplicate per run. Incubation of the metal ion (except for Fe^3+ as described above) and pre-complexation of the metal with [^14C]-citrate prior to cell addition yielded similar results. Experiments were also conducted, specifically for Fe^3+-citrate uptake, involving reducing the IPTG induction temperature in E. coli down to 4° C. (see FIG. 5). This was to observe actual uptake of the iron complex.

[3] = system: S. coelicolor; experiment: Growth of S. coelicolor in CHELEX-washed, metal-free SMMC broth; assay type: cell-based, Streptomyces coelicolor
Description: Streptomyces coelicolor A3(2) was obtained from a third party supplier and the American Type culture collection (BAA-471). S. coelicolor A3(2) stocks were grown in Yeast-Extract Malt Extract broth (YEME) at 28° C. in 125 mL baffled flasks to an Optical Density at 600 nm (OD600) of ˜2.0. 20% glycerol was added to the cells in a 1:1 volume ratio and the cells were chilled on ice for 1 hour and placed at −80° C. still in the ice container. After 24 hours the cells were taken out of the ice container and at −80° C. Streptomyces coelicolor was grown in Streptomyces Minimal Medium (SMM) broth for functional characterization studies. SMM was prepared as previously reported (A17) with the following modifications; L-asparagine was replaced with ammonium sulfate (1 g L^−1), agar was eliminated and either [56 mM] sodium citrate (SMMC) or [56 mM] glucose (SMMG) was added as the sole carbon source. 50 ml of SMMC or SMMG broths were inoculated with 1 ml of S. coelicolor A3(2) stock solutions and grown for 48-72 hrs at 28° C. and 300 rpm shaking in 125 mL baffled flasks.
In addition, growth of S. coelicolor was arrested in CHELEX-washed, metal-free SMMC broth. This arrest could be prevented by addition of Fe^3+ (or Ca^2+) but not Mg^2+ or Ni^2+ to SMMC.

Row | SMILES | uptake of citrate or metal-citrate species above background [1] | uptake of 1,5-[^14C]-citrate with metal ion cofactor [2] | prevention of growth arrest by addition of metal ion [3] | uptake of citrate in the presence of metal ion [1] | EGTA concentration at which citrate uptake decreased to zero ([1]; in the presence of 10 mM Ca^2+) | Fe^3+-citrate uptake, iron absent from growth broth ([1]; S. coelicolor grown in SMM containing glucose, no iron in broth)
1 | [Ba+2] [Ba^2+] | No uptake | – | – | – | – | –
2 | [Ca+2] [Ca^2+] | No uptake | uptake of 1,5-[^14C]-citrate observed | prevented | – | – | –
3 | [Co+2] [Co^2+] | No uptake | did not result in citrate uptake | – | no greater than the rate of uptake without metal ions | – | –
4 | O=C(O)CN(CCOCCOCCN(CC(=O)O)CC(=O)O)CC(=O)O [EGTA, ethylene glycol tetraacetic acid, reference compound] | – | – | – | – | over 1 mM | –
5 | O=C([O-])CC(O)(CC(=O)[O-])C(=O)[O-].[Fe+3] [Fe^3+-citrate] | – | – | – | – | – | greatly reduced
6 | [Fe+3] [Fe^3+] | significant uptake | uptake of 1,5-[^14C]-citrate observed | prevented | uptake was dependent on the presence | – | –
7 | [Mg+2] [Mg^2+] | No uptake | did not result in citrate uptake | not | no greater than the rate of uptake without metal ions | – | –
8 | [Ni+2] [Ni^2+] | No uptake | did not result in citrate uptake | not | no greater than the rate of uptake without metal ions | – | –
9 | [Pb+2] [Pb^2+] | No uptake | uptake of 1,5-[^14C]-citrate observed | – | – | – | –
10 | O=C(O)CC(O)(CC(=O)O)C(=O)O [free citrate] | No uptake | not transported | – | no uptake | – | –
